# Results as given in patent EP3822285A1, “VARIANT NISIN PEPTIDES” (University College Cork-National University of Ireland, Cork, priority 2019, dated 2021).
# Where “and” joins values, the source holds several entries; their conditions need not be identical. Identical values can stand only once. Marks after values point to notes of the source that are not given here.
# Assays:
# Assay type in all cases: cell-based
# [1] = tested on: Thermus thermophilus HB27; experiment: Agar diffusion assay with cell free supernatant of producing strains; conditions: zone diameter relative to Nisin A wild type (100)
# Protocol: (§1) Agar diffusion assays were carried out in triplicate using nisin producing and indicator (T. thermophilus HB27 and T. scotoductus Se-1) strains. Both the producer and indicator strains were cultured as per conditions described above. One ml of overnight culture of indicators were added to 50ml of molten Castenholz agar, briefly swirled and poured. Wells were made using sterile glass pipette. To generate cell free supernatant from nisin producing strains, 10 mls of overnight cultures of the strains were centrifuged at 950g for 20 mins. The cell free supernatant was transferred to a sterile tube. 50 µl of cell free supernatant was added to wells described above. Plates were incubated at 55°C for 3 days and the zone of clearance measured.
# (§2) The cell free supernatant of nisin A and nisin variant producing L. lactis was used to determine the bioactivity of these lantibiotics against T. thermophilus HB27 and T. scotoductus SE-1 using agar diffusion assays, with the zone of clearance representing the bioactivity of the producing strain (i.e., representing a combination of the amount of the peptide produced and the specific activity of that peptide). […] Among the variants tested were those with altered N-terminal domains. The N-terminal domain of nisin is important for binding with the pyrophosphate moiety of lipid II to mediate pore formation in the cell membrane. Lysine (K) at position 12, which serves as a small flexible region between ring B and C, and is one of among the 5 positively charged residues (K12, K22, K34, H27, […]) of nisin A that contributes to its cationic nature and its attraction to the cell envelope.
# T. brockianus = experiment: Minimum inhibitory concentration assay (Thermus); conditions: pure peptide, mean of triplicate assays
# Protocol: (§3) Minimum inhibitory concentration (MIC) determinations for gram negative Thermus strains were carried out in triplicate in round bottom microtitre plates (Corning). 96 well microtitre plates were pre-treated with bovine serum albumin (BSA) prior to addition of the peptides. Briefly, to each well of the microtire plates 200 µl of d.H2O (filtered with 0.2 µm filter) containing 1% (w/w) BSA was added and incubated at 37°C for 30 mins. The wells were washed with 200 µl of IX phosphate buffered saline (PBS) for 2 times after removing 1% BSA d.H2O. 100 µl of growth media, i.e., Castenholz, was added to each well. […] Target strains were grown overnight as per conditions mention above, 0.5 ml of overnight was subcultured in to 10 mls of fresh Castenholz medium and allowed to grow to an OD600 of ∼0.5. 20µl of this subculture was added to 980µl of media, 150µl of this dilution added to 14.85 ml of growth media. 100µl of this dilution added to each well resulting in a final inoculum of ∼10^5 cfu/ml in 200µl. The plates were incubated at 55° C for 3 days and the MIC was determined as the lowest concentration at which no growth was visible.
# (§4) The bioactivity of cell-free supernatant can be influenced by altered diffusion rates, solubility, production or specific activity. To determine to what extent, if any, the bioactivity noted above is due to increased specific activity, nisin A (control) and the derivatives were purified and their molecular weights confirmed by MALDI TOF mass spectrometry (Table: 6) (Figure: 4). These peptides were used to perform minimum inhibitory concentration assays against six Thermus strains, i.e., T. thermophilus HB27, T. scotoductus SE-1, T. rehai, T. oshimai, T. aquaticus and T. brockianus.
# T. oshimai = experiment: Minimum inhibitory concentration assay (Thermus); conditions: pure peptide, mean of triplicate assays
# Protocol: as §3, §4
# T. aquaticus = experiment: Minimum inhibitory concentration assay (Thermus); conditions: for MIC: pure peptide, mean of triplicate assays
# Protocol: as §3, §4
# T. scotoductus SE-1 = experiment: Minimum inhibitory concentration assay (Thermus); conditions: pure peptide, mean of triplicate assays
# Protocol: as §3, §4
# T. rehai = experiment: Minimum inhibitory concentration assay (Thermus); conditions: for MIC: pure peptide, mean of triplicate assays
# Protocol: as §3, §4
# T. thermophilus HB27 = experiment: Minimum inhibitory concentration assay (Thermus); conditions: pure peptide, mean of triplicate assays
# Protocol: as §3, §4
# Thermus scotoductus SE-1 = experiment: Agar diffusion assay with cell free supernatant of producing strains; conditions: zone diameter relative to Nisin A wild type (100)
# Protocol: as §1, §2
SMILES,% difference [1],MIC (T. brockianus) [µM],MIC (T. oshimai) [µM],MIC (T. aquaticus),MIC (T. scotoductus SE-1) [µM],MIC (T. rehai),MIC (T. thermophilus HB27) [µM],% of wild type (Thermus scotoductus SE-1),fold better activity than nisin A (T. aquaticus) [fold],fold better activity than nisin A (T. rehai) [fold]
C=C(NC(=O)[C@@H](NC(=O)[C@H](Cc1c[nH]cn1)NC(=O)[C@@H](NC(=O)[C@H](CO)NC(=O)[C@@H]1CS[C@@H](C)[C@H]2NC(=O)[C@H](C)NC(=O)[C@H](NC(=O)[C@H](C)NC(=O)CNC(=O)[C@@H]3CCCN3C(=O)[C@@H]3CS[C@@H](C)[C@@H](NC(=O)[C@H](CCCCN)NC(=O)[C@@H]4CS[C@@H](C)[C@@H](NC(=O)[C@@H]5CSC[C@@H](NC(=O)/C(=C/C)NC(=O)[C@@H](N)[C@@H](C)CC)C(=O)N[C@@H]([C@@H](C)CC)C(=O)NC(=C)C(=O)N[C@@H](CC(C)C)C(=O)N5)C(=O)N5CCC[C@H]5C(=O)NCC(=O)N4)C(=O)NCC(=O)N[C@@H](C)C(=O)N[C@@H](CC(C)C)C(=O)N[C@@H](CCSC)C(=O)NCC(=O)N3)[C@H](C)SC[C@H](NC2=O)C(=O)N[C@@H](Cc2c[nH]cn2)C(=O)N1)[C@@H](C)CC)C(C)C)C(=O)N[C@@H](CCCCN)C(=O)O [PGA],113%,0.0625,0.0078,0.0312 µM,0.125,0.0156 µM,0.0156,–,–,–
C=C(NC(=O)[C@@H](NC(=O)[C@H](Cc1c[nH]cn1)NC(=O)[C@@H](NC(=O)[C@H](CO)NC(=O)[C@@H]1CS[C@@H](C)[C@H]2NC(=O)[C@H](C)NC(=O)[C@H](NC(=O)[C@H](CCC(N)=O)NC(=O)[C@H](C)NC(=O)[C@@H]3CCCN3C(=O)[C@@H]3CS[C@@H](C)[C@@H](NC(=O)[C@H](CCCCN)NC(=O)[C@@H]4CS[C@@H](C)[C@@H](NC(=O)[C@@H]5CSC[C@@H](NC(=O)/C(=C/C)NC(=O)[C@@H](N)[C@@H](C)CC)C(=O)N[C@@H]([C@@H](C)CC)C(=O)NC(=C)C(=O)N[C@@H](CC(C)C)C(=O)N5)C(=O)N5CCC[C@H]5C(=O)NCC(=O)N4)C(=O)NCC(=O)N[C@@H](C)C(=O)N[C@@H](CC(C)C)C(=O)N[C@@H](CCSC)C(=O)NCC(=O)N3)[C@H](C)SC[C@H](NC2=O)C(=O)N[C@@H](Cc2c[nH]cn2)C(=O)N1)[C@@H](C)CC)C(C)C)C(=O)N[C@@H](CCCCN)C(=O)O [PAQ],138* (0.02) %,0.0312,0.0039,0.0156 µM,0.0625,0.0156 µM,0.0078,–,–,–
C=C(NC(=O)[C@@H](NC(=O)[C@H](Cc1c[nH]cn1)NC(=O)[C@@H](NC(=O)[C@H](CO)NC(=O)[C@@H]1CS[C@@H](C)[C@H]2NC(=O)[C@H](C)NC(=O)[C@H](NC(=O)[C@H](CCCCN)NC(=O)[C@H](CCSC)NC(=O)[C@H](CC(N)=O)NC(=O)[C@@H]3CS[C@@H](C)[C@@H](NC(=O)[C@H](Cc4ccc(O)cc4)NC(=O)[C@@H]4CS[C@@H](C)[C@@H](NC(=O)[C@@H]5CSC[C@@H](NC(=O)/C(=C/C)NC(=O)[C@@H](N)[C@@H](C)CC)C(=O)N[C@@H]([C@@H](C)CC)C(=O)NC(=C)C(=O)N[C@@H](CC(C)C)C(=O)N5)C(=O)N5CCC[C@H]5C(=O)NCC(=O)N4)C(=O)NCC(=O)N[C@@H](C)C(=O)N[C@@H](CC(C)C)C(=O)N[C@@H](CCSC)C(=O)NCC(=O)N3)[C@H](C)SC[C@H](NC2=O)C(=O)N[C@@H](Cc2c[nH]cn2)C(=O)N1)[C@@H](C)CC)C(C)C)C(=O)N[C@@H](CCCCN)C(=O)O [K12Y],94%,0.0312,0.0156,26.4 µg/L and 0.0078 µM,0.625,6.6 µg/L and 0.00195 µM,0.0156,74%,2,4
C=C(NC(=O)[C@@H](NC(=O)[C@H](Cc1c[nH]cn1)NC(=O)[C@@H](NC(=O)[C@H](CO)NC(=O)[C@@H]1CS[C@@H](C)[C@H]2NC(=O)[C@H](C)NC(=O)[C@H](NC(=O)[C@H](CCCCN)NC(=O)[C@H](C)NC(=O)[C@H](C)NC(=O)[C@@H]3CS[C@@H](C)[C@@H](NC(=O)[C@H](CCCCN)NC(=O)[C@@H]4CS[C@@H](C)[C@@H](NC(=O)[C@@H]5CSC[C@@H](NC(=O)/C(=C/C)NC(=O)[C@@H](N)[C@@H](C)CC)C(=O)N[C@@H]([C@@H](C)CC)C(=O)NC(=C)C(=O)N[C@@H](CC(C)C)C(=O)N5)C(=O)N5CCC[C@H]5C(=O)NCC(=O)N4)C(=O)NCC(=O)N[C@@H](C)C(=O)N[C@@H](CC(C)C)C(=O)N[C@@H](CCSC)C(=O)NCC(=O)N3)[C@H](C)SC[C@H](NC2=O)C(=O)N[C@@H](Cc2c[nH]cn2)C(=O)N1)[C@@H](C)CC)C(C)C)C(=O)N[C@@H](CCCCN)C(=O)O [AAK],–,0.0156,0.0156,0.0625 µM,0.0625,0.0156 µM,0.0312,132* (0.004) %,–,–
C=C(NC(=O)[C@@H](NC(=O)[C@H](Cc1c[nH]cn1)NC(=O)[C@@H](NC(=O)[C@H](CO)NC(=O)[C@@H]1CS[C@@H](C)[C@H]2NC(=O)[C@H](C)NC(=O)[C@H](NC(=O)[C@H](CCCCN)NC(=O)[C@H](CCSC)NC(=O)[C@H](CC(N)=O)NC(=O)[C@@H]3CS[C@@H](C)[C@@H](NC(=O)[C@H](CC(C)C)NC(=O)[C@@H]4CS[C@@H](C)[C@@H](NC(=O)[C@@H]5CSC[C@@H](NC(=O)/C(=C/C)NC(=O)[C@@H](N)[C@@H](C)CC)C(=O)N[C@@H]([C@@H](C)CC)C(=O)NC(=C)C(=O)N[C@@H](CC(C)C)C(=O)N5)C(=O)N5CCC[C@H]5C(=O)NCC(=O)N4)C(=O)NCC(=O)N[C@@H](C)C(=O)N[C@@H](CC(C)C)C(=O)N[C@@H](CCSC)C(=O)NCC(=O)N3)[C@H](C)SC[C@H](NC2=O)C(=O)N[C@@H](Cc2c[nH]cn2)C(=O)N1)[C@@H](C)CC)C(C)C)C(=O)N[C@@H](CCCCN)C(=O)O [K12L],120%,0.0312,0.0078,0.0078 µM,0.0625,0.0078 µM,0.0156,–,2,–
C=C(NC(=O)[C@@H](NC(=O)[C@H](Cc1c[nH]cn1)NC(=O)[C@@H](NC(=O)[C@H](CO)NC(=O)[C@@H]1CS[C@@H](C)[C@H]2NC(=O)[C@H](C)NC(=O)[C@H](NC(=O)[C@H](CCCCN)NC(=O)[C@H](C)NC(=O)[C@H](CC(N)=O)NC(=O)[C@@H]3CS[C@@H](C)[C@@H](NC(=O)[C@H](CCCCN)NC(=O)[C@@H]4CS[C@@H](C)[C@@H](NC(=O)[C@@H]5CSC[C@@H](NC(=O)/C(=C/C)NC(=O)[C@@H](N)[C@@H](C)CC)C(=O)N[C@@H]([C@@H](C)CC)C(=O)NC(=C)C(=O)N[C@@H](CC(C)C)C(=O)N5)C(=O)N5CCC[C@H]5C(=O)NCC(=O)N4)C(=O)NCC(=O)N[C@@H](C)C(=O)N[C@@H](CC(C)C)C(=O)N[C@@H](CCSC)C(=O)NCC(=O)N3)[C@H](C)SC[C@H](NC2=O)C(=O)N[C@@H](Cc2c[nH]cn2)C(=O)N1)[C@@H](C)CC)C(C)C)C(=O)N[C@@H](CCCCN)C(=O)O [M21A],158* (0.001) %,0.0625,0.0078,0.0078 µM,0.0312,0.0312 µM,0.0312,–,–,–
